Key:
[1] = molecular target: T1, Xanthine dehydrogenase/oxidase (Homo sapiens, UniProt P47989); assay: Inhibition of human xanthine oxidase
[2] = molecular target: T1, Xanthine dehydrogenase/oxidase; assay: Inhibition of human xanthine oxidase at 30 uM

T1 sequence (P47989 whole entry): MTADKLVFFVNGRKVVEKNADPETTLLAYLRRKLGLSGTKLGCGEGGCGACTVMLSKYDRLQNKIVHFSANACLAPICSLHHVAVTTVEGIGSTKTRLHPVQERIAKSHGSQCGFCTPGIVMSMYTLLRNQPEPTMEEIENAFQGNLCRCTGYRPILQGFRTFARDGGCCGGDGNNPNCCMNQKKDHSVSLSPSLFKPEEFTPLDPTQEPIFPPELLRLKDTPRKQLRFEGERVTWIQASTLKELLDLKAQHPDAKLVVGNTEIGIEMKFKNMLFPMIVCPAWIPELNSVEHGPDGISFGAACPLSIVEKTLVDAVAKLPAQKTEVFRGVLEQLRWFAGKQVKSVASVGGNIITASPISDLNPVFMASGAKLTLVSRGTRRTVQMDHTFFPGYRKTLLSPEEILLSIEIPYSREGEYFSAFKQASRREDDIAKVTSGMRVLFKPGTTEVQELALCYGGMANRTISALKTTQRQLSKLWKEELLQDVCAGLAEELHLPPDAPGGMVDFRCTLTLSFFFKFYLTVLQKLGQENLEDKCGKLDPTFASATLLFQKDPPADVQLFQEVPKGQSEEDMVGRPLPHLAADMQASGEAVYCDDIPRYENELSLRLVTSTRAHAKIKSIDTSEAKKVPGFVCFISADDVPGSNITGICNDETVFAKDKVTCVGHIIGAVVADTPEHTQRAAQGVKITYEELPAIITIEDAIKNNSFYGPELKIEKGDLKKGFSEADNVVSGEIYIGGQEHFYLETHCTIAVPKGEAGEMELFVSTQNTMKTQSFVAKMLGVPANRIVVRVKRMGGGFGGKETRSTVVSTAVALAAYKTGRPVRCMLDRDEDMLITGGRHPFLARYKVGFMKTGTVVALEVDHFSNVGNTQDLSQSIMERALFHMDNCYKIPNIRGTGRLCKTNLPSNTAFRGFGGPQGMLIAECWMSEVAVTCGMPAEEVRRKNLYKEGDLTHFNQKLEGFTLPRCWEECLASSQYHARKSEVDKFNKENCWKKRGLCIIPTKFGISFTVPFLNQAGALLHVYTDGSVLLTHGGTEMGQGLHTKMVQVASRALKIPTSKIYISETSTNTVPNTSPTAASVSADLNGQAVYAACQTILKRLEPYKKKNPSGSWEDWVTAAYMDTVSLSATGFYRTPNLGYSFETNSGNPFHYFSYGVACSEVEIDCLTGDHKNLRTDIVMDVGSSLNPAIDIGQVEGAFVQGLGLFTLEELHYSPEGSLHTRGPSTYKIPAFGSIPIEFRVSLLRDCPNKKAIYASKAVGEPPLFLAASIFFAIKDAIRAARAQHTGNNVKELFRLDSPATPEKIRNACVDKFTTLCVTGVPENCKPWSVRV

Structure (SMILES)	IC50 [1] [µM]	inhibition at 30 µM [2] [%]
Cn1c(=O)[nH]c2nc[nH]c2c1=O [1-METHYLXANTHINE]	> 200	–
Oc1ncnc2[nH]ncc12 [ALLOPURINOL]	–	93.8
O=[N+]([O-])c1ccc2[nH]cnc2c1	86.8	–
Cc1ccc2[nH]cnc2c1	> 200	–
Cc1cc2nc[nH]c2cc1C [DIMEDAZOL]	> 200	–

Results, then the compound that gave them:

IC50 [1] [µM]	inhibition at 30 µM [2] [%]	Structure (SMILES)
> 200	–	Nc1nc(N)c2[nH]cnc2n1 [2,6-DIAMINOPURINE]
30.3	49.8	Nc1ncnc2[nH]ncc12
92.4	–	Nc1nc2nc[nH]c2c(=S)[nH]1 [THIOGUANINE]
> 200	–	COc1nc(N)nc2nc[nH]c12 [METHYLGUANINE]
> 200	–	Nc1ncc2[nH]cnc2n1 [2-AMINOPURINE]
> 200	–	Nc1nc(Cl)c2nc[nH]c2n1 [6-CHLOROGUANINE]
–	61.3	Nc1[nH]cnc2ncnc1-2 [ADENINE]

From ChEMBL document CHEMBL1143034, “The screening and characterization of 6-aminopurine-based xanthine oxidase inhibitors” (Bioorg Med Chem, 2007)
